Laboratory results reported in ChEMBL document CHEMBL1681651, “A broad spectrum anticancer nucleoside with selective toxicity against human colon cells in vitro” (2011).

Legend:
Assay type in all cases: functional
[1] = test system: MDA-MB-435; assay: Growth inhibition of human MDA-MB-435 cells assessed as cell growth at 10 uM after 48 hrs by SRB assay; conditions: MDA-MB-435, 48 h, read-out: Activity
[2] = test system: HL-60(TB); assay: Growth inhibition of human HL-60(TB) cells assessed as cell growth at 10 uM after 48 hrs by SRB assay; conditions: HL-60, 48 h, read-out: Activity
[3] = test system: COLO 205; assay: Growth inhibition of human COLO205 cells assessed as cell growth at 10 uM after 48 hrs by SRB assay; conditions: COLO 205, 48 h, read-out: Activity
[4] = test system: NCI-H322M; assay: Growth inhibition of human NCI-H322M cells assessed as cell growth at 10 uM after 48 hrs by SRB assay; conditions: read-out: Activity
[5] = test system: HCT-15; assay: Growth inhibition of human HCT15 cells assessed as cell growth at 10 uM after 48 hrs by SRB assay; conditions: HCT-15, 48 h, read-out: Activity
[6] = test system: UACC-257; assay: Growth inhibition of human UACC257 cells after 48 hrs by […] growth inhibition assay; conditions: UACC-257, 48 h
[7] = test system: 786-0; assay: Growth inhibition of human 786-0 cells after 48 hrs by […] growth inhibition assay; conditions: 786-0, 48 h
[8] = Growth inhibition of human […] cells assessed as cell growth at 100 uM after 48 hrs by SRB assay; conditions: read-out: Activity
[9] = test system: OVCAR-3; assay: Growth inhibition of human OVCAR3 cells assessed as cell growth at 1 uM after 48 hrs by SRB assay; conditions: OVCAR-3, 48 h, read-out: Activity
[10] = test system: A549; assay: Growth inhibition of human A549 cells after 48 hrs by […] growth inhibition assay; conditions: A549, 48 h
[11] = test system: RXF 393; assay: Growth inhibition of human RXF393 cells assessed as cell growth at 0.1 uM after 48 hrs by SRB assay; conditions: RXF 393, 48 h, read-out: Activity
[12] = test system: UACC-257; assay: Growth inhibition of human UACC257 cells assessed as cell growth at 10 uM after 48 hrs by SRB assay; conditions: UACC-257, 48 h, read-out: Activity
[13] = test system: DU-145; assay: Growth inhibition of human DU145 cells assessed as cell growth at 1 mM after 48 hrs by SRB assay; conditions: DU-145, 48 h, read-out: Activity
[14] = test system: HCT-116; assay: Growth inhibition of human HCT116 cells assessed as cell growth at 0.1 uM after 48 hrs by SRB assay; conditions: HCT-116, 48 h, read-out: Activity
[15] = test system: LOX IMVI; assay: Growth inhibition of human LOXIMVI cells assessed as cell growth at 0.1 uM after 48 hrs by SRB assay; conditions: read-out: Activity
[16] = test system: PC-3; assay: Growth inhibition of human PC3 cells after 48 hrs by […] growth inhibition assay; conditions: PC-3, 48 h
[17] = test system: LOX IMVI; assay: Growth inhibition of human LOXIMVI cells assessed as cell growth at 1 uM after 48 hrs by SRB assay; conditions: read-out: Activity
[18] = test system: UACC-257; assay: Growth inhibition of human UACC257 cells assessed as cell growth at 1 uM after 48 hrs by SRB assay; conditions: UACC-257, 48 h, read-out: Activity
[19] = test system: SK-MEL-5; assay: Growth inhibition of human SK-MEL-5 cells assessed as cell growth at 1 mM after 48 hrs by SRB assay; conditions: SK-MEL-5, 48 h, read-out: Activity
[20] = test system: NCI-H460; assay: Growth inhibition of human NCI-H460 cells assessed as cell growth at 1 uM after 48 hrs by SRB assay; conditions: NCI-H460, 48 h, read-out: Activity
[21] = test system: NCI-H226; assay: Growth inhibition of human NCI-H226 cells assessed as cell growth at 100 uM after 48 hrs by SRB assay; conditions: NCI-H226, 48 h, read-out: Activity
[22] = test system: HCT-116; assay: Growth inhibition of human HCT116 cells assessed as cell growth at 1 uM after 48 hrs by SRB assay; conditions: HCT-116, 48 h, read-out: Activity
[23] = test system: CAKI-1; assay: Growth inhibition of human Caki1 cells assessed as cell growth at 1 mM after 48 hrs by SRB assay; conditions: CAKI-1, 48 h, read-out: Activity
[24] = test system: NCI/ADR-RES; assay: Growth inhibition of human NCI/ADR-RES cells assessed as cell growth at 1 uM after 48 hrs by SRB assay; conditions: read-out: Activity
[25] = test system: UO-31; assay: Growth inhibition of human UO31 cells assessed as cell growth at 0.1 uM after 48 hrs by SRB assay; conditions: UO-31, 48 h, read-out: Activity
[26] = test system: CAKI-1; assay: Growth inhibition of human Caki1 cells assessed as cell growth at 0.1 uM after 48 hrs by SRB assay; conditions: CAKI-1, 48 h, read-out: Activity
[27] = test system: U-251; assay: Growth inhibition of human U251 cells assessed as cell growth at 100 uM after 48 hrs by SRB assay; conditions: U-251, 48 h, read-out: Activity
[28] = test system: NCI-H460; assay: Growth inhibition of human NCI-H460 cells assessed as cell growth at 0.1 uM after 48 hrs by SRB assay; conditions: NCI-H460, 48 h, read-out: Activity
[29] = test system: MDA-MB-435; assay: Growth inhibition of human MDA-MB-435 cells assessed as cell growth at 1 mM after 48 hrs by SRB assay; conditions: MDA-MB-435, 48 h, read-out: Activity
[30] = test system: SNB-19; assay: Growth inhibition of human SNB19 cells assessed as cell growth at 1 mM after 48 hrs by SRB assay; conditions: SNB-19, 48 h, read-out: Activity
[31] = test system: OVCAR-3; assay: Growth inhibition of human OVCAR3 cells assessed as cell growth at 0.1 uM after 48 hrs by SRB assay; conditions: OVCAR-3, 48 h, read-out: Activity
[32] = test system: OVCAR-8; assay: Growth inhibition of human OVCAR8 cells assessed as cell growth at 1 uM after 48 hrs by SRB assay; conditions: OVCAR-8, 48 h, read-out: Activity
[33] = Growth inhibition of human […] cells assessed as cell growth at 1 mM after 48 hrs by SRB assay; conditions: read-out: Activity
[34] = Growth inhibition of human […] cells assessed as cell growth at 1 uM after 48 hrs by SRB assay; conditions: read-out: Activity
[35] = test system: NCI-H322M; assay: Growth inhibition of human NCI-H322M cells after 48 hrs by […] growth inhibition assay
[36] = read-out: LC50 (the source's name)
[37] = read-out: pLC50 (the source's name) (converted)

CNC(=O)OC[C@H]1O[C@@H](n2cnc3c(NC(=O)Nc4ccccc4)ncnc32)[C@H](O[Si](C)(C)C(C)(C)C)[C@@H]1O[Si](C)(C)C(C)(C)C
growth at 10 µM [1]: 94.9% | growth at 10 µM [2]: 113% | growth at 10 µM [3]: 106% | growth at 10 µM [4]: 118% | growth at 10 µM [5]: 103%

CNC(=O)NC[C@H]1O[C@@H](n2cnc3c(NC(=O)Nc4ccccc4)ncnc32)[C@H](O[Si](C)(C)C(C)(C)C)[C@@H]1O[Si](C)(C)C(C)(C)C
GI50 ([6]; read-out: GI50): 3.78 µM | CC50 [6, 36]: > 100 µM | TGI ([6]; read-out: TGI): 20.2 µM | GI50 ([6]; read-out: pGI50 (converted)): 3.8 µM | CC50 [6, 37]: > 100 µM | TGI ([6]; read-out: pTGI (converted)): 20 µM | GI50 ([7]; read-out: GI50): 2.04 µM | CC50 [7, 36]: 6.75 µM | TGI ([7]; read-out: TGI): 3.71 µM | GI50 ([7]; read-out: pGI50 (converted)): 2.04 µM | CC50 [7, 37]: 6.76 µM | TGI ([7]; read-out: pTGI (converted)): 3.72 µM | growth at 100 µM [8]: 5% | growth at 1 µM [9]: 113% | GI50 ([10]; read-out: GI50): 2.9 µM | CC50 [10, 36]: > 100 µM | TGI ([10]; read-out: TGI): 12.8 µM | GI50 ([10]; read-out: pGI50 (converted)): 2.88 µM | CC50 [10, 37]: > 100 µM | TGI ([10]; read-out: pTGI (converted)): 12.9 µM | growth at 10 µM [1]: 97% | growth at 0.1 µM [11]: 98% | growth at 10 µM [12]: 104% | growth at 1000 µM [13]: -89% | growth at 0.1 µM [14]: 107% | growth at 0.1 µM [15]: 102% | GI50 ([16]; read-out: GI50): 2.69 µM | CC50 [16, 36]: > 100 µM | TGI ([16]; read-out: TGI): > 1 µM | GI50 ([16]; read-out: pGI50 (converted)): 2.69 µM | CC50 [16, 37]: > 100 µM | TGI ([16]; read-out: pTGI (converted)): > 100 µM | growth at 1 µM [17]: 101% | growth at 1 µM [18]: 100% | growth at 10 µM [3]: 105% | growth at 1000 µM [19]: -99% | growth at 1 µM [20]: 93% | growth at 100 µM [21]: -7% | growth at 1 µM [22]: 105% | growth at 1000 µM [23]: -33% | growth at 1 µM [24]: 109% | growth at 0.1 µM [25]: 87% | growth at 0.1 µM [26]: 103% | growth at 100 µM [27]: 2% | growth at 0.1 µM [28]: 104% | growth at 1000 µM [29]: -10% | growth at 1000 µM [30]: 7% | growth at 10 µM [4]: 105% | growth at 0.1 µM [31]: 111% | growth at 1 µM [32]: 106% | growth at 10 µM [5]: 100% | growth at 1000 µM [33]: 4% | growth at 1 µM [34]: 98% | GI50 ([35]; read-out: GI50): 6.86 µM | CC50 [35, 36]: > 100 µM | TGI ([35]; read-out: TGI): > 100 µM | GI50 ([35]; read-out: pGI50 (converted)): 6.92 µM | CC50 [35, 37]: > 100 µM | TGI ([35]; read-out: pTGI): > 100 µM

CCOC(=O)C[C@H]1[C@@H](O[Si](C)(C)C(C)(C)C)[C@H](n2cnc3c(NC(=O)Nc4ccccc4)ncnc32)O[C@@H]1CNC(=O)NC
GI50 ([6]; read-out: GI50): 5.68 µM | CC50 [6, 36]: > 100 µM | TGI ([6]; read-out: TGI): > 100 µM | GI50 ([6]; read-out: pGI50 (converted)): 5.62 µM | CC50 [6, 37]: > 100 µM | TGI ([6]; read-out: pTGI (converted)): > 100 µM | GI50 ([7]; read-out: GI50): 2 µM | CC50 [7, 36]: 17.9 µM | TGI ([7]; read-out: TGI): 5.21 µM | GI50 ([7]; read-out: pGI50 (converted)): 2 µM | CC50 [7, 37]: 17.8 µM | TGI ([7]; read-out: pTGI (converted)): 5.25 µM | growth at 100 µM [8]: -27% | growth at 1 µM [9]: 115% | GI50 ([10]; read-out: GI50): 4.18 µM | CC50 [10, 36]: 79.1 µM | TGI ([10]; read-out: TGI): 19.2 µM | GI50 ([10]; read-out: pGI50 (converted)): 4.17 µM | CC50 [10, 37]: 79.4 µM | TGI ([10]; read-out: pTGI (converted)): 19.1 µM | growth at 10 µM [1]: 89% | growth at 0.1 µM [11]: 99% | growth at 10 µM [2]: 101% | growth at 10 µM [12]: 99% | growth at 1000 µM [13]: -59% | growth at 0.1 µM [14]: 93% | growth at 0.1 µM [15]: 97% | GI50 ([16]; read-out: GI50): 2.25 µM | CC50 [16, 36]: 78.4 µM | TGI ([16]; read-out: TGI): 48.5 µM | GI50 ([16]; read-out: pGI50 (converted)): 2.24 µM | CC50 [16, 37]: 12.6 µM | TGI ([16]; read-out: pTGI (converted)): 4.9 µM | growth at 1 µM [17]: 97% | growth at 1 µM [18]: 102% | growth at 10 µM [3]: 93% | growth at 1000 µM [19]: 11% | growth at 1 µM [20]: 102% | growth at 100 µM [21]: 71% | growth at 1 µM [22]: 113% | growth at 1000 µM [23]: 7% | growth at 1 µM [24]: 107% | growth at 0.1 µM [25]: 87% | growth at 0.1 µM [26]: 88% | growth at 100 µM [27]: 28% | growth at 0.1 µM [28]: 102% | growth at 1000 µM [29]: 8% | growth at 1000 µM [30]: 12% | growth at 10 µM [4]: 95% | growth at 0.1 µM [31]: 114% | growth at 1 µM [32]: 100% | growth at 10 µM [5]: 94% | growth at 1000 µM [33]: -57% | growth at 1 µM [34]: 75% | GI50 ([35]; read-out: GI50): > 100 µM | CC50 [35, 36]: > 100 µM | TGI ([35]; read-out: TGI): > 100 µM | GI50 ([35]; read-out: pGI50 (converted)): > 100 µM | CC50 [35, 37]: > 100 µM | TGI ([35]; read-out: pTGI): > 100 µM
